Assay results published in PubChem BioAssay AID2060483 (Molecular Pharmacology Branch, DTP, NCI, 2025).

Tested on: K24384-001-R-PDC complex spheroids, viability
Experiment: Anticancer human tumor K24384-001-R-PDC patient-derived pancreatic adenocarcinoma cell line growth inhibition [GQUAD]
Settings: for IC50: curve of first compound; for viability, T/C: stronger effect = lower value
In short: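 Multi-cell-type spheroids of tumor cells with HUVEC and mesenchymal stem cells, treated with drug combinations. Concentrations descend in half-log steps from near clinical Cmax, or from 10 microM where Cmax is unknown; viability read-out.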
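Note: spheroids exposed to compounds for seven days.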

SMILES: CC1COCCN1c1cc(-c2ccnn2C)c2ccnc(-c3ccn[nH]3)c2n1 (configuration not stated) + Cc1[nH]c2ccc(F)cc2c1-c1nc2c3cccnc3c3ncccc3c2[nH]1
- IC50 (second compound 0.0316 µM): 215 nM
- IC50 (second compound 0.1 µM): 242 nM
- IC50 (second compound 0.316 µM): 219 nM
- IC50 (second compound 1 µM): 178 nM
- IC50 (second compound 3.16 µM): 57.6 nM
- IC50 (second compound 10 µM): 51.1 nM
- viability, T/C (second compound 0.0316 µM, first compound 0.0316 µM): 84.6%
- viability, T/C (second compound 0.0316 µM, first compound 0.1 µM): 63.7%
- viability, T/C (second compound 0.0316 µM, first compound 0.316 µM): 45.1%
- viability, T/C (second compound 0.0316 µM, first compound 1 µM): 28.7%
- viability, T/C (second compound 0.0316 µM, first compound 3.16 µM): 44.8%
- viability, T/C (second compound 0.0316 µM, first compound 10 µM): 31.8%
- viability, T/C (second compound 0.1 µM, first compound 0.0316 µM): 68.7%
- viability, T/C (second compound 0.1 µM, first compound 0.1 µM): 68.9%
- viability, T/C (second compound 0.1 µM, first compound 0.316 µM): 44.3%
- viability, T/C (second compound 0.1 µM, first compound 1 µM): 31.1%
- viability, T/C (second compound 0.1 µM, first compound 3.16 µM): 45%
- viability, T/C (second compound 0.1 µM, first compound 10 µM): 36.5%
- viability, T/C (second compound 0.316 µM, first compound 0.0316 µM): 71.4%
- viability, T/C (second compound 0.316 µM, first compound 0.1 µM): 76.5%
- viability, T/C (second compound 0.316 µM, first compound 0.316 µM): 38.7%
- viability, T/C (second compound 0.316 µM, first compound 1 µM): 33.5%
- viability, T/C (second compound 0.316 µM, first compound 3.16 µM): 39.8%
- viability, T/C (second compound 0.316 µM, first compound 10 µM): 38.2%
- viability, T/C (second compound 1 µM, first compound 0.0316 µM): 62.1%
- viability, T/C (second compound 1 µM, first compound 0.1 µM): 64.6%
- viability, T/C (second compound 1 µM, first compound 0.316 µM): 29.5%
- viability, T/C (second compound 1 µM, first compound 1 µM): 41.5%
- viability, T/C (second compound 1 µM, first compound 3.16 µM): 39.6%
- viability, T/C (second compound 1 µM, first compound 10 µM): 36.3%
- viability, T/C (second compound 3.16 µM, first compound 0.0316 µM): 55.5%
- viability, T/C (second compound 3.16 µM, first compound 0.1 µM): 48.1%
- viability, T/C (second compound 3.16 µM, first compound 0.316 µM): 31.4%
- viability, T/C (second compound 3.16 µM, first compound 1 µM): 41%
- viability, T/C (second compound 3.16 µM, first compound 3.16 µM): 29.3%
- viability, T/C (second compound 3.16 µM, first compound 10 µM): 35.7%
- viability, T/C (second compound 10 µM, first compound 0.0316 µM): 57.4%
- viability, T/C (second compound 10 µM, first compound 0.1 µM): 39.9%
- viability, T/C (second compound 10 µM, first compound 0.316 µM): 30.3%
- viability, T/C (second compound 10 µM, first compound 1 µM): 31.5%
- viability, T/C (second compound 10 µM, first compound 3.16 µM): 24.1%
- viability, T/C (second compound 10 µM, first compound 10 µM): 28.9%
